In patent US20110288072A1, “Use of ivabradine for obtaining medicaments intended for the treatment of endothelial dysfunction” (LES LABORATOIRES SERVIER, priority 2007, published 2011):

How the values were obtained:
[1] = tested on: rats with heart failure; experiment: Endothelial function of isolated coronary and mesenteric arteries (myograph) in rats with heart failure; assay type: in vivo, rat; conditions: 10 mg/kg per day for 3 months
Procedure: (§1) The impact of treatment with ivabradine on endothelial function was studied in two pathological animal models, dyslipidaemic mice, and rats with heart failure, on 4 different vascular beds, renal and cerebral arteries in the mouse, coronary and mesenteric arteries in the rats. Study of the endothelial function comprises measuring the capacity of the vessel to dilate in response to various stimuli, such as acetylcholine, or measuring the increase in flow in the vessel.
(§2) Some animals were treated with ivabradine, 10 mg/kg per day for 3 months. Dyslipidaemic mice, rats with heart failure, healthy mice (Wild type) and healthy rats, untreated, acted as controls. At the end of the treatment period, the arteries were isolated and mounted in a myograph in order to measure their diameter after the application of acetylcholine or to measure the increase in flow. In order to explore more closely the mechanism associated with endothelial dysfunction, inhibitors of the principal pathways of vasodilation were tested: a free-radical chelating agent, a nitrogen monoxide production inhibitor, a prostacyclin pathway inhibitor.

[2] = tested on: dyslipidaemic mice; experiment: Endothelial function and compliance of isolated renal and cerebral arteries (myograph) in dyslipidaemic mice; assay type: in vivo, mouse; conditions: 10 mg/kg per day for 3 months
Procedure: as §1, §2
The compliance (capacity of the vessel to dilate as the transmural pressure increases) of the cerebral arteries of the mice was also evaluated.

[3] = tested on: dyslipidaemic mice, and rats with heart failure; experiment: Cardiac frequency after 3 months' treatment in the animal models; assay type: in vivo, mouse, rat; conditions: 10 mg/kg per day for 3 months
[4] = tested on: dyslipidaemic mice, and rats with heart failure; experiment: Mechanism of endothelial dysfunction explored with inhibitors of the principal pathways of vasodilation; assay type: in vivo, mouse, rat; conditions: mechanism of the beneficial effects; 10 mg/kg per day for 3 months
Procedure: as §2

Q: With COc1cc2c(cc1OC)CC(=O)N(CCCN(C)C[C@H]1Cc3cc(OC)c(OC)cc31)CC2 [ivabradine, 3-{3-[{[(7S)-3,4-dimethoxybicyclo [4.2.0]octa-1,3,5-trien-7-yl]-methyl}-(methyl)-amino]-propyl}-7,8-dimethoxy-1,3,4,5-tetrahydro-2H-3-benzazepin-2-one] as the compound, how does the “endothelial dysfunction (capacity to dilate) in the coronary artery” value ([1]; HF rat, FIG. 1A) read?
A: The value was “completely prevents entothelial dysfunction”.

Q: What about the “capacity of the mesenteric artery to dilate” value ([1]; treated HF rat compared with untreated HF rat, FIG. 1B) of the same compound?
A: Its value is “appreciably improved”.

Q: What about the “endothelial dysfunction (capacity to dilate) in the cerebral artery” value ([2]; DL mouse, FIG. 1C, D) of the same compound?
A: The value was “completely prevents entothelial dysfunction”.

Q: What about the “endothelial dysfunction (capacity to dilate) in the renal artery” value ([2]; DL mouse, FIG. 1C, D) of the same compound?
A: Its value is “completely prevents entothelial dysfunction”.

Q: And the “compliance of the isolated cerebral arteries” value ([2]; treated mice)?
A: The value was “improved”.

Q: And the “reduction in cardiac frequency” value [3]?
A: The value was 10-20%.

Q: What about the nitrogen monoxide pathway [4] of the same compound?
A: The nitrogen monoxide pathway was “preservation of the nitrogen monoxide pathway”.

Q: What about the oxidative stress [4] of the same compound?
A: Its oxidative stress is “decrease in oxidative stress”.
